Results as given in patent publication US10945980B2, “Treatment for myopia” (The University of Newcastle, priority 2016, dated 2021).

Assays:
nNOS = nNOS immunohistochemistry of retinal whole mounts 3 hours after intravitreal injection; type: in vivo, guinea pig (Cavia porcellus)
Experimental: Two experimental protocols were used. In Experiment 1, young guinea pigs were randomly divided into three drug treatment groups: no injection (n=14), vehicle (n=14) and 0.2 mM L-arginine (n=16). Animals in the latter two groups received a daily 10 μl intravitreal injection in one eye at 7, 8 and 9 days of age (Table 2). […] The fellow eye was untreated. At 10 days of age, the −6D lens was removed, animals were cyclopleged and refractive error was measured in both eyes. In Experiment 2, sixteen guinea pigs received an intravitreal injection of either vehicle (n=8) or 0.2 mM L-arginine (n=8) into their untreated eye at 16 days of age (Table 2). Injections were made 1 hour after the beginning of their 12 hr light cycle. 3 hours after injection, light adapted animals were euthanized, and the injected eye removed and processed using immunohistochemistry.
To make the L-arginine (LA), 217.75 mg of LA (Sigma, A5006) was added to 10 ml of isotonic saline (Pfizer) to create 125 mM fresh stock each day. Hydrochloric acid was used to lower the stock to a pH of 7.4. The stock was diluted with isotonic saline to produce a final dose of 0.185 mM of LA (˜0.2 mM) at the level of the retina based on a vitreous volume of 125 μl and an injection volume of 10 μl. Vehicle injections consisted of 10 μl of isotonic saline (pH 7.4).
Guinea pigs were briefly anaesthetised with isoflurane in oxygen and intravitreal injections were made through the pars plana ˜1 mm posterior to the limbus at an angle of approximately 40° to avoid contact with the crystalline lens and retina. Drugs were delivered using a 0.3 ml syringe (Diabetic BD UltraFine II) with a 31 gauge needle. After the injection, antibiotic gel (Conoptal) was applied lightly to the cornea, and animals recovered rapidly in a warm darkened box.
In Experiment 2, three hours after their intravitreal injection, animals were anaesthetised with isoflurane in oxygen and then euthanized with an […] injection of sodium pentobarbitone (160 mg/kg; Lethabarb) into the heart. The eye that had received treatment was then enucleated. […]

[1] = tested on: form deprivation myopia in guinea pigs; test: Oral (gavage) L-arginine in form deprivation myopia; type: in vivo, guinea pig (Cavia porcellus)
Excerpt: Guinea pigs (pigmented variety, Cavia porcellus) were bred, housed, and raised as described in Example 1. The University of Newcastle Animal Care and ethics Committee approved all procedures.
Two experimental protocols were employed (Table 3). In Experiment 1, 12 animals wore a diffuser over one eye (form-deprivation, FD) for […]. This period reliably induces myopia in the deprived eye compared to the untreated fellow eye. Seven of these animals also concurrently received a single gavage of L-arginine (200 mg/kg/day) each day at 9:30 am while briefly anaesthetised. […]
At the end of the FD period, at 12 days of age (Experiment 1) or at […] (Experiment 2), after the morning gavage treatment, both eyes were cyclopleged and 1.25 hours later, refractive error was measured. […]
After cycloplegia was induced, refractive error was measured in each eye using streak retinoscopy as previously described (Howlett and McFadden, 2007; McFadden et al., 2004). The spherical equivalent was calculated as the average of the horizontal and vertical meridians (see Howlett and McFadden, 2006). Next, ocular length was measured using high frequency ultrasound (20 MHz) as previously described (McFadden et al, 2004). At least 20 traces were recorded for each eye and distances were averaged for at least 10 of these recordings. […]

`N=C(N)NCCC[C@H](N)C(=O)O` [L-arginine] was tested. Which “density of NOS displaced amacrine cells (DACs) vs vehicle injected eyes” value (nNOS; single intravitreal 0.2 mM L-arginine, 3 hours after injection, each eccentricity from the optic nerve, p<0.001) did it give?
Its value is “significantly higher density”.

And the “density of Type I amacrine cells expressing nNOS vs vehicle injected group” value (nNOS; single intravitreal 0.2 mM L-arginine, 3 hours after injection, p<0.001)?
The value was “significantly higher density”.

What about the “increase of expression of nNOS in the retina” value (nNOS; single intravitreal injection of L-arginine (0.2 mM)) of the same compound?
The value was “approximately 20%”.

What about the “relative elongation (FD eye vs untreated eye)” value ([1]; Experiment 1: 200 mg/kg once daily gavage, 7 days FD, p=0.714) of the same compound?
The value was 42±30 μm.

What about the “eye lengths vs animals only fed water” value ([1]; Experiment 2: 25 mg/kg twice daily gavage, 3 days FD, both the FD eye and the fellow eye) of the same compound?
Its value is “smaller eye lengths than animals only fed water”.
